From patent publication US10588967B2, “Chimeric antigen receptor (CAR) signalling system” (UCL BUSINESS PLC, priority 2014, dated 2020)
Entries after “also recorded” stand apart in the source; their conditions may differ.

Legend:
[1] = system: T-cells transduced with inducible CAR with modified FKBP12 domains; test: AP1903-inducible CD19 CAR: signalling of transduced T-cells challenged with CD19 negative or positive targets; assay type: cell-based
Excerpt: FIG. 11—AP1903 homodimerizer inducible CAR. (a) AP1903 homodimerizer inducible CAR was constructed by using modified FKBP12 domains to constitute the heterodimerization motifs for both the antigen recognition component and the signalling component. The antigen recognition component recognizes CD19. (b) T-cells expressing this CAR along with non-transduced T-cells were stained with anti-Fc which recognizes the CAR spacer. The transduced T-cells expressed the CAR well. (c) Transduced T-cells were next challenged with increasing concentration of CID dimerizer AP1903 and challenged with either CD19 negative or CD19 positive target cells.
AP1903 is a synthetic chemical inducer of dimerization which binds to two mutated FKB12 domains (Clackson et al (1998). Proc. Natl. Acad. Sci. U.S.A 95, 10437-10442). An inducible CAR was developed based on this system, using the modified FKBP12 domains to constitute the heterodimerization domain of both the antigen recognition component and signalling component in the framework as described in Example 1 with the antigen recognition domain and the signalling domain co-expressed with a FMD-2A like sequence (FIG. 11a and SEQ ID No. 24). The FKBP12 domains were codon-wobbled to prevent homologous recombination. T-cells were transduced with this construct and challenged with target cells which were CD19 negative or positive.

[2] = biological target: FKBP-like binding domains with a F36V mutation (Homo sapiens, UniProt P62942, F37V); details: cells engineered to express FKBP-like binding domain fusion proteins; cited from earlier work
Sequence of FKBP-like binding domains with a F36V mutation (P62942 2-108 F37V): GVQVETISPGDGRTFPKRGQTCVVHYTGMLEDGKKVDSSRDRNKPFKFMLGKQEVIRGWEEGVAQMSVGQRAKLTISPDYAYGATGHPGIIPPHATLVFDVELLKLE

[3] = system: T-cells transduced with split CD19 CAR with EcR and RXR heterodimerization motifs; test: RSL1-inducible CD19 CAR: IL-2 release of transduced T-cells challenged with CD19 negative or positive targets; assay type: cell-based; details: CD19 negative or CD19 positive target cells; increasing concentration of RSL1
Excerpt: FIG. 10—RSL1 inducible CAR (a) an RSL1 inducible CAR was constructed by using retinoic acid receptor domains and ecodysone receptor domains to constitute the heterodimerization motifs for the antigen recognition component and the signalling component respectively. The antigen recognition component recognizes CD19. (b) T-cells expressing this CAR along with non-transduced T-cells were stained with anti-Fc which recognizes the CAR spacer. The transduced T-cells expressed the CAR well. (c) Transduced T-cells were next challenged with increasing concentration of RSL1 and challenged with either CD19 negative or CD19 positive target cells.
Signaling through the signaling component may be determined by a variety of methods known in the art. […] Functional readouts, such as clonal expansion of T cells, upregulation of activation markers on the cell surface, differentiation into effector cells and induction of cytotoxicity or cytokine secretion may also be utilised. As an illustration, in the present examples the inventors determined levels of interleukin-2 (IL-2) produced by T-cells expressing a receptor component and signalling component of the CAR signalling system according to the present invention upon binding of antigen to the receptor component in the presence of varying concentrations of CID. […]

Compound | Response / signalling of AP1903-inducible CAR T-cells ([1]; CD19 negative or CD19 positive target cells, increasing concentration of AP1903) | Signalling of AP1903-inducible CAR T-cells at very high dimerizer concentration ([1]; very high concentration of dimerizer, CD19 positive targets) | Selectivity of dimerization: FKBP-like (F36V) domains versus endogenous FKBP [2] | IL-2 release / signalling of RSL1-inducible CAR T-cells [3]
CC[C@H](C(=O)N1CCCC[C@H]1C(=O)O[C@H](CCc1ccc(OC)c(OC)c1)c1cccc(OCC(=O)NCCNC(=O)COc2cccc([C@@H](CCc3ccc(OC)c(OC)c3)OC(=O)[C@@H]3CCCCN3C(=O)[C@@H](CC)c3cc(OC)c(OC)c(OC)c3)c2)c1)c1cc(OC)c(OC)c(OC)c1 [AP1903] | responded only to CD19 positive targets in the presence of AP1903; also recorded: signal only in the presence of CID | signalling was inhibited; also recorded: signalling is reduced | no interactions involving endogenous FKBP | 
CCc1c(OC)cccc1C(=O)NN(C(=O)c1cc(C)cc(C)c1)C(C)(C)C [RSL1, N-(2-ethyl-3-methoxybenzoyl)-N′-(3,5-dimethylbenzoyl)-N′-tert-butylhydrazine] |  |  |  | Only CAR T-cells challenged with SupT1 targets in the presence of RSL1 released IL-2; also recorded: signal only in the presence of RSL1
